Source: patent publication US11066396B2 (priority 2016, dated 2021)

Columns and labels:
[1] = molecular target: HDAC1 (Homo sapiens (Human), UniProt Q13547); conditions: read-out: HDAC1 IC50
[2] = molecular target: HDAC8 (Homo sapiens (Human), UniProt Q9BY41); conditions: read-out: HDAC8 IC50
Chain of HDAC8 (Q9BY41 whole entry): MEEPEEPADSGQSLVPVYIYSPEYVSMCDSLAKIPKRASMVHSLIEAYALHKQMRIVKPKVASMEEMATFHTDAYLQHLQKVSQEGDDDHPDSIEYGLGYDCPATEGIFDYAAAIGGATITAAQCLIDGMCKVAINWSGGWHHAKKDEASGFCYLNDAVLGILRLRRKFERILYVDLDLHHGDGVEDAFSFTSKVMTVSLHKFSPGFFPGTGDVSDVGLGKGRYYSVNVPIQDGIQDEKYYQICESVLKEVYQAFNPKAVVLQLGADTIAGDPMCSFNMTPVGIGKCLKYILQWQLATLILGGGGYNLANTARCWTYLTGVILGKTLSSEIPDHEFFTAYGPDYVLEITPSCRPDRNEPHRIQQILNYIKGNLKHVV

Chain of HDAC1 (Q13547 whole entry): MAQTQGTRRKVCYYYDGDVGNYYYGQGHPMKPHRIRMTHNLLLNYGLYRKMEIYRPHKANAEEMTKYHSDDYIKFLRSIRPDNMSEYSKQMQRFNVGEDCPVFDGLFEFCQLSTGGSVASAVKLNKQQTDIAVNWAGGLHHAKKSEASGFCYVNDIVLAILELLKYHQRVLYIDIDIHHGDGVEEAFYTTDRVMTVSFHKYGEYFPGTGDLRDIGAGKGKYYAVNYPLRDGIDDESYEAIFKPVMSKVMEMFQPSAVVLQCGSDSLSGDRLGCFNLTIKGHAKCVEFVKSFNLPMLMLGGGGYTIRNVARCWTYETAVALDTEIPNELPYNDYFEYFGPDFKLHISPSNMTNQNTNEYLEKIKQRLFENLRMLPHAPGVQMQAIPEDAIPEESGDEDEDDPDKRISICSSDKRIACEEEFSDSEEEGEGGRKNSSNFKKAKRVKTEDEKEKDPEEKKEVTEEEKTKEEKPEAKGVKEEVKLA

| Compound | IC50 [1] | IC50 [2] |
| --- | --- | --- |
| CC1(C)CC(C(=O)N(Cc2ccc(-c3noc(C(F)(F)F)n3)cn2)c2cccc(F)c2)CCO1 (racemic) [Example 63, N-(3-fluorophenyl)-2,2-dimethyl-N-((5-(5-(trifluoromethyl)-1,2,4-oxadiazol-3-yl)pyridin-2-yl)methyl)tetrahydro-2H-pyran-4-carboxamide] | 260 nM | 1500 nM |
| Cc1cn(C(C)C(=O)N(Cc2ccc(-c3noc(C(F)(F)F)n3)cn2)c2cccc(F)c2)nn1 (racemic) [Example 64, N-(3-fluorophenyl)-2-(4-methyl-1H-1,2,3-triazol-1-yl)-N-((5-(5-(trifluoromethyl)-1,2,4-oxadiazol-3-yl)pyridin-2-yl)methyl)propanamide] | 200 nM | 2800 nM |
| CC(C(=O)N(Cc1ccc(-c2noc(C(F)(F)F)n2)cc1)c1cccc(C(F)(F)F)c1)n1cncn1 (racemic) [Example 66, 2-(1H-1,2,4-triazol-1-yl)-N-(4-(5-(trifluoromethyl)-1,2,4-oxadiazol-3-yl)benzyl)-N-(3-(trifluoromethyl)phenyl)propanamide] | 720 nM | 1900 nM |
| O=C(C1CC1c1cncnc1)N(Cc1ccc(-c2noc(C(F)(F)F)n2)cc1)c1cccc(C(F)(F)F)c1 (racemic) [Example 73, 2-(pyrimidin-5-yl)-N-(4-(5-(trifluoromethyl)-1,2,4-oxadiazol-3-yl)benzyl)-N-(3-(trifluoromethyl)phenyl)cyclopropane-1-carboxamide] | 940 nM | 2200 nM |
| CC(Cn1cncn1)C(=O)N(Cc1ccc(-c2noc(C(F)(F)F)n2)cc1)c1cccc(C(F)(F)F)c1 (racemic) [Example 79, 2-methyl-3-(1H-1,2,4-triazol-1-yl)-N-(4-(5-(trifluoromethyl)-1,2,4-oxadiazol-3-yl)benzyl)-N-(3-(trifluoromethyl)phenyl)propanamide] | 1300 nM | 3400 nM |
| O=C(CC1CNCCO1)N(Cc1ccc(-c2noc(C(F)(F)F)n2)cc1)c1cccc(C(F)(F)F)c1 (racemic) [Example 82, 2-(morpholin-2-yl)-N-(4-(5-(trifluoromethyl)-1,2,4-oxadiazol-3-yl)benzyl)-N-(3-(trifluoromethyl)phenyl)acetamide] | 860 nM | 2500 nM |
| O=C(C1COCCO1)N(Cc1ccc(-c2noc(C(F)(F)F)n2)cc1)c1cccc(C(F)(F)F)c1 (racemic) [Example 84, N-(4-(5-(trifluoromethyl)-1,2,4-oxadiazol-3-yl)benzyl)-N-(3-(trifluoromethyl)phenyl)-1,4-dioxane-2-carboxamide] | 950 nM | 2400 nM |
| O=C(CC1COCCO1)N(Cc1ccc(-c2noc(C(F)(F)F)n2)cc1)c1cccc(C(F)(F)F)c1 (racemic) [Example 95, 2-(1,4-dioxan-2-yl)-N-(4-(5-(trifluoromethyl)-1,2,4-oxadiazol-3-yl)benzyl)-N-(3-(trifluoromethyl)phenyl)acetamide] | 1300 nM | 2000 nM |
| O=C1CCC(c2cccc(Cl)c2)N1c1ccc(-c2noc(C(F)(F)F)n2)cc1F (racemic) [Example 116, 5-(3-chlorophenyl)-1-(2-fluoro-4-(5-(trifluoromethyl)-1,2,4-oxadiazol-3-yl)phenyl)pyrrolidin-2-one] | 1600 nM | 14000 nM |
| Fc1ccccc1C1COCCN1c1ccc(-c2noc(C(F)(F)F)n2)cn1 (racemic) [Example 135, 3-(2-fluorophenyl)-4-(5-(5-(trifluoromethyl)-1,2,4-oxadiazol-3-yl)pyridin-2-yl)morpholine] | 210 nM | 1300 nM |
| Fc1cccc(C2COCCN2c2ccc(-c3noc(C(F)(F)F)n3)cn2)c1 (racemic) [Example 137, 3-(3-fluorophenyl)-4-(5-(5-(trifluoromethyl)-1,2,4-oxadiazol-3-yl)pyridin-2-yl)morpholine] | 440 nM | 2300 nM |
| Fc1ccc(C2COCCN2c2ccc(-c3noc(C(F)(F)F)n3)cn2)cc1 (racemic) [Example 142, 3-(4-fluorophenyl)-4-(5-(5-(trifluoromethyl)-1,2,4-oxadiazol-3-yl)pyridin-2-yl)morpholine] | 500 nM | 1900 nM |
| CC(C)(C)OC(=O)N1CC(=O)N(c2ccc(-c3noc(C(F)(F)F)n3)cc2)[C@H](c2ccccc2)C1 (racemic) [Example 163, tert-butyl 3-oxo-5-phenyl-4-(4-(5-(trifluoromethyl)-1,2,4-oxadiazol-3-yl)phenyl)piperazine-1-carboxylate] | 1700 nM | 4300 nM |
| FC(F)(F)c1nc(-c2ccnc(OC3CCCc4ccc(Cl)nc43)c2)no1 (racemic) [Example 226, 2-chloro-8-({4-[5-(trifluoromethyl)-1,2,4-oxadiazol-3-yl]pyridin-2-yl}oxy)-5,6,7,8-tetrahydroquinoline] | 1100 nM | 850 nM |
| CC1(C)CC(c2ccccc2)N(c2ccc(-c3noc(C(F)(F)F)n3)cc2F)C1=O (racemic) [Example 312, 1-{2-fluoro-4-[5-(trifluoromethyl)-1,2,4-oxadiazol-3-yl]phenyl}-3,3-dimethyl-5-phenylpyrrolidin-2-one] | 1400 nM | 45000 nM |
| O=C1CCC(c2c(F)cccc2F)N1c1ccc(-c2noc(C(F)(F)F)n2)cc1F (racemic) [Example 314, 5-(2,6-difluorophenyl)-1-{2-fluoro-4-[5-(trifluoromethyl)-1,2,4-oxadiazol-3-yl]phenyl}pyrrolidin-2-one] | 11000 nM | 6500 nM |
| COc1ccccc1C1CCC(=O)N1c1ccc(-c2noc(C(F)(F)F)n2)cc1F (racemic) [Example 315, 1-{2-fluoro-4-[5-(trifluoromethyl)-1,2,4-oxadiazol-3-yl]phenyl}-5-(2-methoxyphenyl)pyrrolidin-2-one] | 2100 nM | 8000 nM |
| O=C1CCC(c2ccc(-c3noc(C(F)(F)F)n3)cc2)N1c1ccccc1F (racemic) [Example 320, 1-(2-fluorophenyl)-5-{4-[5-(trifluoromethyl)-1,2,4-oxadiazol-3-yl]phenyl}pyrrolidin-2-one] | 880 nM | 12000 nM |
| CC1(Cc2ccc(-c3noc(C(F)(F)F)n3)cc2)C(=O)Nc2ccc(F)cc21 (racemic) [Example 346, 5-fluoro-3-methyl-3-{4-[5-(trifluoromethyl)-1,2,4-oxadiazol-3-yl]benzyl}-1,3-dihydro-2H-indol-2-one] | 1200 nM | 15000 nM |
| Cc1nc2c(c(=O)[nH]1)CC(NCc1ccc(-c3noc(C(F)(F)F)n3)cc1)CC2 (racemic) [Example 350, 2-methyl-6-[({4-[5-(trifluoromethyl)-1,2,4-oxadiazol-3-yl]phenyl}methyl)amino]-5,6,7,8-tetrahydroquinazolin-4(3H)-one] | 1200 nM | 250 nM |
| FC(F)(F)c1nc(-c2ccc(CNC3CCc4ncccc4C3)cc2)no1 (racemic) [Example 351, N-({4-[5-(trifluoromethyl)-1,2,4-oxadiazol-3-yl]phenyl}methyl)-5,6,7,8-tetrahydroquinolin-6-amine] | 520 nM | 680 nM |
| FC(F)(F)c1nc(-c2ccc(CNC3CCc4[nH]nc(C(F)(F)F)c4C3)cc2)no1 (racemic) [Example 353, 3-(trifluoromethyl)-N-({4-[5-(trifluoromethyl)-1,2,4-oxadiazol-3-yl]phenyl}methyl)-4,5,6,7-tetrahydro-1H-indazol-5-amine] | 410 nM | 900 nM |
